ChEMBL document CHEMBL1743201, “Casarett and Doull's Toxicology The Basic Science of Poisons, 7th edition” (2008)

Assays:
Type in all cases: ADME
[1] = biological target: T1, Glutathione S-transferase kappa 1 (Homo sapiens, UniProt Q9Y2Q3); experiment: Substrates for human mitochondrial glutathione transferase GSTK1
T1 sequence (Q9Y2Q3 whole entry): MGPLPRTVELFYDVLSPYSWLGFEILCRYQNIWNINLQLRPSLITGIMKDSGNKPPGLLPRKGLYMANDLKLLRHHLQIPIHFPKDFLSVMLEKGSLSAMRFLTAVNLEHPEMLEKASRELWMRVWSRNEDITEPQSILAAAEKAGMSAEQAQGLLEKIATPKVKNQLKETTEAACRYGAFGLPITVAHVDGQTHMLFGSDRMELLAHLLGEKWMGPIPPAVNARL

[2] = biological target: T2, UDP-glucuronosyltransferase 1A1 (Homo sapiens, UniProt P22309); experiment: Substrate of human UDP-glucuronosyltransferase UGT1A1
T2 sequence (P22309 whole entry): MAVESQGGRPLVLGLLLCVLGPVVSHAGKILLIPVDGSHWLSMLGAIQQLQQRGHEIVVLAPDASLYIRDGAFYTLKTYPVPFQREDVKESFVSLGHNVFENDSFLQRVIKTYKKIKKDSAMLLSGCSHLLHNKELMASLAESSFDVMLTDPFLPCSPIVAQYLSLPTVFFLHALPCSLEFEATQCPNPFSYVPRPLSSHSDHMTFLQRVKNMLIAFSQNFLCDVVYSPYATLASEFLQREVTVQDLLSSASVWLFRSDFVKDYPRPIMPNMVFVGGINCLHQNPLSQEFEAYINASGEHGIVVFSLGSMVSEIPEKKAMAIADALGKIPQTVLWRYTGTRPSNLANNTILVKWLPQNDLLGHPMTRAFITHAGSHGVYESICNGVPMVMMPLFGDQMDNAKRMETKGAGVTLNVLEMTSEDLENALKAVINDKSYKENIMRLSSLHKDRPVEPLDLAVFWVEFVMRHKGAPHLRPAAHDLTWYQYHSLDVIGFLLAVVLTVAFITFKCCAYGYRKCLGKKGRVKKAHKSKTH

[3] = biological target: T3, UDP-glucuronosyltransferase 2B4 (Homo sapiens, UniProt P06133); experiment: Substrate of human UDP-glucuronosyltransferase UGT2B4
T3 sequence (P06133 whole entry): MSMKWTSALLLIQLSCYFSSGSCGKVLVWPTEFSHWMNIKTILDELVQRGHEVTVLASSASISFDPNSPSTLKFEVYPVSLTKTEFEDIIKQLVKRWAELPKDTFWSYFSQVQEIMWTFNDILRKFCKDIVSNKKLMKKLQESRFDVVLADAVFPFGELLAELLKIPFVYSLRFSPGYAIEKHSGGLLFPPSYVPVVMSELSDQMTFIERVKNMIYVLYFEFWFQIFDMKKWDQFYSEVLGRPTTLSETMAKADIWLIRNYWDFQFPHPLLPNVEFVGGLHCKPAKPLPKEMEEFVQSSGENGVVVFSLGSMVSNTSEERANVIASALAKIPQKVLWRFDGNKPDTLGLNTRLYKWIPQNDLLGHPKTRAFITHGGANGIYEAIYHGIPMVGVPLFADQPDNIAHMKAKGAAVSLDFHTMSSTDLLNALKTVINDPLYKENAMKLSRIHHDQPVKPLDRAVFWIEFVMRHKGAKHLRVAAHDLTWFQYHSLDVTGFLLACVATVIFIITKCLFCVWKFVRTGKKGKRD

[4] = biological target: T4, UDP-glucuronosyltransferase 2B7 (Homo sapiens, UniProt P16662); experiment: Substrate of human UDP-glucuronosyltransferase UGT2B7
T4 sequence (P16662 whole entry): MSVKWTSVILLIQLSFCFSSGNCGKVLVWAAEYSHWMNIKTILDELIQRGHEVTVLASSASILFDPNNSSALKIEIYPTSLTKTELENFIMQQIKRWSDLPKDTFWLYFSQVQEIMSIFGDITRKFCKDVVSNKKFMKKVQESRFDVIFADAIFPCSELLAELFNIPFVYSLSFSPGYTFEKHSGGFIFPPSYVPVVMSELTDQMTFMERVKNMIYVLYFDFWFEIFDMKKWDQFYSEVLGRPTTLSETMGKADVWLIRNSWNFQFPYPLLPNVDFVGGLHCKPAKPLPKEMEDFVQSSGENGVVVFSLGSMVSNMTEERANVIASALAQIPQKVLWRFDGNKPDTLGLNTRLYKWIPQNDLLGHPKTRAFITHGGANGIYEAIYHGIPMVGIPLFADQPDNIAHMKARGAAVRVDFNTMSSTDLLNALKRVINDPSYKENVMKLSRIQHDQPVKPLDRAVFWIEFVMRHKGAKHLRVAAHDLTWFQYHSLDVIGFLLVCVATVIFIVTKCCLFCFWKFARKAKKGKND

[5] = biological target: T5, UDP-glucuronosyltransferase 2B17 (Homo sapiens, UniProt O75795); experiment: Substrate of human UDP-glucuronosyltransferase UGT2B17
T5 sequence (O75795 whole entry): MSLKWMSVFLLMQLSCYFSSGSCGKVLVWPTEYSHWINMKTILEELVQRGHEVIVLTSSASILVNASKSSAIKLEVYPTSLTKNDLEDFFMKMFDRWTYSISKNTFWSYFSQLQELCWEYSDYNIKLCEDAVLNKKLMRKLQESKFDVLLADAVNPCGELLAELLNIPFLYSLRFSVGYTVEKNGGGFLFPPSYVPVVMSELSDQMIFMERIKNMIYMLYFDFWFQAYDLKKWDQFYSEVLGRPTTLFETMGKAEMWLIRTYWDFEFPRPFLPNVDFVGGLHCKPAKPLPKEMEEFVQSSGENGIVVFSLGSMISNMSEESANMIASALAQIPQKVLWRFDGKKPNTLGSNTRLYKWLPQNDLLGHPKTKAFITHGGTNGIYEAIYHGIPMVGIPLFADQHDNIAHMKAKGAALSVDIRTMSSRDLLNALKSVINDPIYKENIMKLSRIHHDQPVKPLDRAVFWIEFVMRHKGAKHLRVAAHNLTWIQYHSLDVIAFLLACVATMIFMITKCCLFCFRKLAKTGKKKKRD

Cytochrome P450 2C8 [6] = biological target: T6, Cytochrome P450 2C8 (Homo sapiens, UniProt P10632); experiment: Clinically relevant inhibitors of human liver microsomal P450 enzymes, isoform CYP2C8; conditions: microsomes
T6 sequence (P10632 whole entry): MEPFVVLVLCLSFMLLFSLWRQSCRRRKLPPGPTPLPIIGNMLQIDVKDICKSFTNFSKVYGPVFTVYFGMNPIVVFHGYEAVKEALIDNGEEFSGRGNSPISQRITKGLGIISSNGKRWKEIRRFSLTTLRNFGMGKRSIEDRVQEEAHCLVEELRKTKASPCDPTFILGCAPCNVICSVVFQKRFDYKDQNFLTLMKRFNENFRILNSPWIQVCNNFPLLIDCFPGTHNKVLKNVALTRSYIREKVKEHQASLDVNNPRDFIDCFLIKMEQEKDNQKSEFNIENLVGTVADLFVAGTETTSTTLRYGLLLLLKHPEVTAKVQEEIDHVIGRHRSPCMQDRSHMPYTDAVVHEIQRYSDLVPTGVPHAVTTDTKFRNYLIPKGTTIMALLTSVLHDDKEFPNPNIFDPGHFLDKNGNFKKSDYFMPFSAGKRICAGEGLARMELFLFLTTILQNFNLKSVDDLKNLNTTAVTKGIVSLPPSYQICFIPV

Cytochrome P450 2C8 [7] = biological target: T6, Cytochrome P450 2C8; experiment: Clinically relevant substrates of human liver microsomal P450 enzymes, isoform CYP2C8; conditions: microsomes
[8] = biological target: T7, Maleylacetoacetate isomerase (Homo sapiens, UniProt O43708); experiment: Substrates for human cytosolic glutathione transferase GSTZ1
T7 sequence (O43708 whole entry): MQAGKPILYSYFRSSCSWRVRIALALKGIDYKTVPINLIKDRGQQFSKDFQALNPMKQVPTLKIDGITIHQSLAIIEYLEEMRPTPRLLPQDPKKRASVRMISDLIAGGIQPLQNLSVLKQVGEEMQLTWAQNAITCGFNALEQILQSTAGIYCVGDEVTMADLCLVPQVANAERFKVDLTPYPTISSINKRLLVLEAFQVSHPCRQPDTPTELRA

[9] = biological target: T8, Glutathione S-transferase A4 (Homo sapiens, UniProt O15217); experiment: Substrates for human cytosolic glutathione transferase GSTA4
T8 sequence (O15217 whole entry): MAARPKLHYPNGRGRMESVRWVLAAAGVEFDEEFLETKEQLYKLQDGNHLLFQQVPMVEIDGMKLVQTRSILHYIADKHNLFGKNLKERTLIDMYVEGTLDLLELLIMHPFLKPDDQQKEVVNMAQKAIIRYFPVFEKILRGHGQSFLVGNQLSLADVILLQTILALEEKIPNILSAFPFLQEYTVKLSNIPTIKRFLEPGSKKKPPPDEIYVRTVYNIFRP

[10] = biological target: Glutathione S-transferase P (Homo sapiens, UniProt P09211); experiment: Substrates for human cytosolic glutathione transferase GSTP1
[11] = biological target: T9, Glutathione S-transferase Mu 2 (Homo sapiens, UniProt P28161); experiment: Substrates for human cytosolic glutathione transferase GSTM2
T9 sequence (P28161 whole entry): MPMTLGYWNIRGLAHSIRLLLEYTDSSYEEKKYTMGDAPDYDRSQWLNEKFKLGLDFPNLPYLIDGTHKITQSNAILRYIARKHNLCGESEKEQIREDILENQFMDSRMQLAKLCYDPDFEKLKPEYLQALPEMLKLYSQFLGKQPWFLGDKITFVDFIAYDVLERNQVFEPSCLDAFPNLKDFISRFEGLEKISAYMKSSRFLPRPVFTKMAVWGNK

[12] = biological target: T10, UDP-glucuronosyltransferase 2B15 (Homo sapiens, UniProt P54855); experiment: Substrate of human UDP-glucuronosyltransferase UGT2B15
T10 sequence (P54855 whole entry): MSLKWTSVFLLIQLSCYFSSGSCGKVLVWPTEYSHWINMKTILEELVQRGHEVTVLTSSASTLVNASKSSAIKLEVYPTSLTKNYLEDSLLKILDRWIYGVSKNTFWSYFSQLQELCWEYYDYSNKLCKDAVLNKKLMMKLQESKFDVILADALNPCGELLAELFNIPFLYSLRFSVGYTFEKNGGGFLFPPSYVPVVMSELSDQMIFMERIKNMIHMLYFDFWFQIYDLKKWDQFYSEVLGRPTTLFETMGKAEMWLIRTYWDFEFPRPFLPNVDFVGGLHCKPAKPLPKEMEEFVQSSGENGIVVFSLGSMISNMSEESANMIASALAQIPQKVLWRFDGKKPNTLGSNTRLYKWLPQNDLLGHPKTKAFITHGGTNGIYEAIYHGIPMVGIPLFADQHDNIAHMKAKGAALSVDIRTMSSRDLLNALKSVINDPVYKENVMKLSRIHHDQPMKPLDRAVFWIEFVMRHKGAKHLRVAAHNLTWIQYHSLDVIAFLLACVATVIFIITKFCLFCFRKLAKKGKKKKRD

[13] = biological target: T11, UDP-glucuronosyltransferase 1A9 (Homo sapiens, UniProt O60656); experiment: Substrate of human UDP-glucuronosyltransferase UGT1A9
T11 sequence (O60656 whole entry): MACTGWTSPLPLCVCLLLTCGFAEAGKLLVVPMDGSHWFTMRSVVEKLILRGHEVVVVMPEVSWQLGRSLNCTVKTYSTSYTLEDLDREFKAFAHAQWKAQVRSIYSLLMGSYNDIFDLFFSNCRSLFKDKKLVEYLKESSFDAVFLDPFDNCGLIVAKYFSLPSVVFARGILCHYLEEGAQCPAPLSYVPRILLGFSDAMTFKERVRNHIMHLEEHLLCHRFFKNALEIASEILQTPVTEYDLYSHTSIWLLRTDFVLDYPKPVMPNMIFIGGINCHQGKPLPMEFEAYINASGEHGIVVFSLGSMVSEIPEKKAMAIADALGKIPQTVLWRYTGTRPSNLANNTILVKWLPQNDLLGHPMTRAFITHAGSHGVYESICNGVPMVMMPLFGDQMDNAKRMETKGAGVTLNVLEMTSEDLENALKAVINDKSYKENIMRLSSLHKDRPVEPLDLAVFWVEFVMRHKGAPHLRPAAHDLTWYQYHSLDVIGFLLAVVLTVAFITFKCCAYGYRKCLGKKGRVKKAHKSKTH

Sequence of Glutathione S-transferase P (P09211 whole entry): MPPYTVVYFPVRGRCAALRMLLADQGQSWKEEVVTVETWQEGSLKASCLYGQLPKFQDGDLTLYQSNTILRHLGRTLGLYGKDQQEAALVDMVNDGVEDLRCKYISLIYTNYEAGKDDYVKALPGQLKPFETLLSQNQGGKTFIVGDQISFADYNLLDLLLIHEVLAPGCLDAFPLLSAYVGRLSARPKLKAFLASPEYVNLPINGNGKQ

## CCCCC[C@@H](/C=C/C=C\C/C=C\C/C=C\CCCC(=O)O)OO
[1]
  Activity: Substrate

## COc1ccccc1OCCNCC(O)COc1cccc2[nH]c3ccccc3c12 (configuration not stated) [CARVEDILOL]
[2]
  Activity: Substrate
[3]
  Activity: Substrate
[4]
  Activity: Substrate

## CCCCC/C=C\C/C=C\C/C=C\C=C\CCCCC(=O)O
[1]
  Activity: Substrate

## O=c1c(O)c(-c2ccccc2)oc2cc(O)cc(O)c12 [GALANGIN]
[5]
  Activity: Substrate

## CN(CCOc1ccc(CC2SC(=O)NC2=O)cc1)c1ccccn1 (configuration not stated) [ROSIGLITAZONE]
Cytochrome P450 2C8 [6]
  Activity: Inhibitor
Cytochrome P450 2C8 [7]
  Activity: Substrate

## O=C(O)/C=C\C(=O)CC(=O)CC(=O)O [MALEYLACETOACETATE]
[8]
  Activity: Substrate

## COc1ccc2c3c1O[C@H]1[C@@H](O)C=C[C@H]4[C@@H](C2)N(C)CC[C@@]341 [CODEINE]
[3]
  Activity: Substrate

## C=CCc1ccc(O)c(OC)c1 [EUGENOL]
[5]
  Activity: Substrate

## O=C(O)CF [FLUOROACETATE]
[8]
  Activity: Substrate

## CCCCCC(O)/C=C/C=O (configuration not stated) [4-HYDROXYNON-2-ENAL]
[9]
  Activity: Substrate

## O=C(O)C(Cl)Cl [DICHLOROACETIC ACID]
[8]
  Activity: Substrate

## C/C=C/C(=O)OCC1=CCCCC1=O
[9]
  Activity: Substrate
[10]
  Activity: Substrate
[11]
  Activity: Substrate

## CC(Cl)C(=O)O (configuration not stated)
[8]
  Activity: Substrate

## CC(=O)O[C@H]1C(=O)[C@@]2(C)[C@H]([C@H](OC(=O)c3ccccc3)[C@]3(O)C[C@H](OC(=O)[C@H](O)[C@@H](NC(=O)c4ccccc4)c4ccccc4)C(C)=C1C3(C)C)[C@]1(OC(C)=O)CO[C@@H]1C[C@@H]2O [PACLITAXEL]
Cytochrome P450 2C8 [7]
  Activity: Substrate

## CCCCCCC(O)/C=C/C=O (configuration not stated)
[9]
  Activity: Substrate

## COCc1c(C(C)C)nc(C(C)C)c(/C=C/[C@@H](O)C[C@@H](O)CC(=O)O)c1-c1ccc(F)cc1 [CERIVASTATIN]
Cytochrome P450 2C8 [7]
  Activity: Substrate

## C=C(CC)C(=O)c1ccc(OCC(=O)O)c(Cl)c1Cl [ETHACRYNIC ACID]
[9]
  Activity: Substrate

## CCOc1cc(CC(=O)N[C@@H](CC(C)C)c2ccccc2N2CCCCC2)ccc1C(=O)O [REPAGLINIDE]
Cytochrome P450 2C8 [7]
  Activity: Substrate

## C[C@]12CC[C@@H]3c4ccc(O)cc4CC[C@H]3[C@@H]1C[C@@H](O)[C@@H]2O [ESTRIOL]
[12]
  Activity: Substrate
[3]
  Activity: Substrate

## COc1cc2ccc(=O)oc2cc1O [SCOPOLETIN]
[13]
  Activity: Substrate
[5]
  Activity: Substrate
